This note sets out measurements from patent US10487068B2, “Pyridazine derivatives as RORc modulators” (Genentech, Inc., priority 2015, dated 2019).

In this assay the target is T1, RORc ligand binding domain (Homo sapiens, UniProt P51449).
T1 sequence (P51449 269-508 limits assumed): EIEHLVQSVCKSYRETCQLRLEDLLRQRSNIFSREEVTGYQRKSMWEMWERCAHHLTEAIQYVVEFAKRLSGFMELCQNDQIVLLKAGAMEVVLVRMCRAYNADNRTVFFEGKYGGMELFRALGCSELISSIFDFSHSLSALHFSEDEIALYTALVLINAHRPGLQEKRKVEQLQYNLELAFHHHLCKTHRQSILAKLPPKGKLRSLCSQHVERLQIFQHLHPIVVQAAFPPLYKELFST
In words: In Vitro RORc Ligand Binding Assay. Conditions: RORc IC50, radioligand 25-[3H]hydroxycholesterol 6 nM; 0.6 ug/mL RORc receptor; 3 h at 25° C.

Consider `CC[C@H](O)c1n[nH]c(-c2cccc([C@@]34CC[C@@H](c5cc(-c6c(F)cccc6F)nnc53)C4(C)C)n2)n1` [Example 322, (S)-1-(5-(6-((5R,8S)-3-(2,6-difluorophenyl)-9,9-dimethyl-5,6,7,8-tetrahydro-5,8-methanocinnolin-8-yl)pyridin-2-yl)-1H-1,2,4-triazol-3-yl)propan-1-ol], for which the half-maximal inhibitory concentration (IC50) is 11.5 nM.

Compound `CC1(C)[C@H]2CC[C@]1(c1ccnc(-n3cnc(CC(N)=O)n3)n1)c1nnc(-c3c(F)cccc3F)cc12` [Example 323] displayed a concentration for half-maximal inhibition (IC50) of 11.2 nM.

The compound `CC(C)(O)Cc1ccn(-c2nccc([C@@]34CC[C@@H](c5cc(-c6c(F)cccc6F)nnc53)C4(C)C)n2)n1` [Example 324] returned an IC50 of 9.5 nM.

The compound `CC1(C)[C@H]2CC[C@]1(c1cncc(-c3nc(C(N)=O)co3)n1)c1nnc(-c3c(F)cccc3F)cc12` [Example 325, 2-(6-((5R,8S)-3-(2,6-difluorophenyl)-9,9-dimethyl-5,6,7,8-tetrahydro-5,8-methanocinnolin-8-yl)pyrazin-2-yl)oxazole-4-carboxamide] yielded an IC50 of 6.7 nM.

`CC1(C)[C@H]2CC[C@]1(c1cncc(-c3nc(C(=O)NCCO)co3)n1)c1nnc(-c3c(F)cccc3F)cc12` [Example 326, 2-(6-((5R,8S)-3-(2,6-difluorophenyl)-9,9-dimethyl-5,6,7,8-tetrahydro-5,8-methanocinnolin-8-yl)pyrazin-2-yl)-N-(2-hydroxyethyl)oxazole-4-carboxamide] had an IC50 of 10.1 nM.

As for `CC1(C)[C@H]2CC[C@]1(c1ccnc(N3CCOCC3)n1)c1nnc(-c3c(F)cccc3F)cc12` [Example 328], the IC50 came to 2.2 nM.

For the compound `CC1(C)[C@H]2CC[C@]1(c1ccnc(N3CCCC3)n1)c1nnc(-c3c(F)cccc3F)cc12` [Example 329], the half-maximal inhibitory concentration (IC50) turned out to be 2.8 nM.

`CC1(C)[C@H]2CC[C@]1(c1ccnc(N3CC[C@H](O)C3)n1)c1nnc(-c3c(F)cccc3F)cc12` [Example 330]: the IC50 is 4.6 nM.

As for `CC1(C)[C@H]2CC[C@]1(c1ccnc(OCCO)n1)c1nnc(-c3c(F)cccc3F)cc12` [Example 333], the IC50 turned out to be 4.8 nM.

Compound `CC1(C)[C@H]2CC[C@]1(c1ccnc(N3CCO[C@@H](CO)C3)n1)c1nnc(-c3c(F)cccc3F)cc12` [Example 334] came in with a half-maximal inhibitory concentration (IC50) of 5 nM.

Compound `CC1(C)[C@H]2CC[C@]1(c1ccnc(N3CCO[C@H](CO)C3)n1)c1nnc(-c3c(F)cccc3F)cc12` [Example 335] displayed a half-maximal inhibitory concentration (IC50) of 6.2 nM.

As for `CC1(C)[C@H]2CC[C@]1(c1ccnc(N3CC4(CCO4)C3)n1)c1nnc(-c3c(F)cccc3F)cc12` [Example 336], the IC50 was 13 nM.

The compound `CC1(C)[C@H]2CC[C@]1(c1ccnc(N3CCNC(=O)C3)n1)c1nnc(-c3c(F)cccc3F)cc12` [Example 337] gave an IC50 of 6 nM.

As for `CC1(C)[C@H]2CC[C@]1(c1ccnc(N3CCN(S(C)(=O)=O)CC3)n1)c1nnc(-c3c(F)cccc3F)cc12` [Example 338], the IC50 stood at 3.2 nM.

For the compound `CC1(C)[C@H]2CC[C@]1(c1cccc(-c3nc([C@@H](O)C(F)(F)F)n[nH]3)n1)c1nnc(-c3c(F)cccc3F)cc12` [Example 339, (R)-1-(5-(6-((5R,8S)-3-(2,6-difluorophenyl)-9,9-dimethyl-5,6,7,8-tetrahydro-5,8-methanocinnolin-8-yl)pyridin-2-yl)-1H-1,2,4-triazol-3-yl)-2,2,2-trifluoroethanol], the IC50 stood at 5.6 nM.

`CC1(C)[C@H]2CC[C@]1(c1cccc(-c3nc([C@H](O)C(F)(F)F)n[nH]3)n1)c1nnc(-c3c(F)cccc3F)cc12` [Example 340, (S)-1-(5-(6-((5R,8S)-3-(2,6-difluorophenyl)-9,9-dimethyl-5,6,7,8-tetrahydro-5,8-methanocinnolin-8-yl)pyridin-2-yl)-1H-1,2,4-triazol-3-yl)-2,2,2-trifluoroethanol] registered an IC50 of 3.6 nM.

In turn, `CC1(C)[C@H]2CC[C@]1(c1cncc(-c3nc(C#N)co3)n1)c1nnc(-c3c(F)cccc3F)cc12` [Example 341, 2-(6-((5R,8S)-3-(2,6-difluorophenyl)-9,9-dimethyl-5,6,7,8-tetrahydro-5,8-methanocinnolin-8-yl)pyrazin-2-yl)oxazole-4-carbonitrile] yielded an IC50 of 3.4 nM.

Consider `CC(C)(O)c1cnc(-c2cncc([C@@]34CC[C@@H](c5cc(-c6c(F)cccc6F)nnc53)C4(C)C)n2)o1` [Example 342, 2-(2-(6-((5R,8S)-3-(2,6-difluorophenyl)-9,9-dimethyl-5,6,7,8-tetrahydro-5,8-methanocinnolin-8-yl)pyrazin-2-yl)oxazol-5-yl)propan-2-ol], for which the IC50 is 11.7 nM.

`C=C(C)c1cnc(-c2cncc([C@@]34CC[C@@H](c5cc(-c6c(F)cccc6F)nnc53)C4(C)C)n2)o1` [Example 343, 2-(6-((5R,8S)-3-(2,6-difluorophenyl)-9,9-dimethyl-5,6,7,8-tetrahydro-5,8-methanocinnolin-8-yl)pyrazin-2-yl)-5-(prop-1-en-2-yl)oxazole] registered an IC50 of 1.6 nM.

With `CC(C)(C)OC(=O)N1CC=C(c2nccc([C@@]34CC[C@@H](c5cc(-c6c(F)cccc6F)nnc53)C4(C)C)n2)CC1` [Example 344], the IC50 is 1.7 nM.

Turning to `CC(C)(C)OC(=O)N1CCC(c2nccc([C@@]34CC[C@@H](c5cc(-c6c(F)cccc6F)nnc53)C4(C)C)n2)CC1` [Example 345], the IC50 amounted to 13 nM.

On to `CC(C)OC(=O)c1coc(-c2cncc([C@@]34CC[C@@H](c5cc(-c6c(F)cccc6F)nnc53)C4(C)C)n2)n1` [Example 346, isopropyl 2-(6-((5R,8S)-3-(2,6-difluorophenyl)-9,9-dimethyl-5,6,7,8-tetrahydro-5,8-methanocinnolin-8-yl)pyrazin-2-yl)oxazole-4-carboxylate], for which the IC50 is 3.7 nM.

The compound `CC(C)(O)c1ncc(-c2cncc([C@@]34CC[C@@H](c5cc(-c6c(F)cccc6F)nnc53)C4(C)C)n2)o1` [Example 347, 2-(5-(6-((5R,8S)-3-(2,6-difluorophenyl)-9,9-dimethyl-5,6,7,8-tetrahydro-5,8-methanocinnolin-8-yl)pyrazin-2-yl)oxazol-2-yl)propan-2-ol] displayed a half-inhibitory concentration (IC50) of 6.8 nM.

As for `C[C@@H](O)c1ccn(-c2nccc([C@@]34CC[C@@H](c5cc(-c6c(F)cccc6F)nnc53)C4(C)C)n2)n1` [Example 348], the IC50 was 10.6 nM.

In the case of `CC1(C)[C@H]2CC[C@]1(c1ccnc(C3CCN(S(C)(=O)=O)CC3)n1)c1nnc(-c3c(F)cccc3F)cc12` [Example 349], the IC50 was found to be 6.3 nM.

The compound `CC(C)(O)c1coc(-c2nccc([C@@]34CC[C@@H](c5cc(-c6c(F)cccc6F)nnc53)C4(C)C)n2)n1` [Example 350] yielded a half-inhibitory concentration (IC50) of 16.4 nM.

`CC(=O)N1CCC(c2nccc([C@@]34CC[C@@H](c5cc(-c6c(F)cccc6F)nnc53)C4(C)C)n2)CC1` [Example 351] registered a 50% inhibitory concentration (IC50) of 10.5 nM.

As to `Cc1nc(C)n(-c2nccc([C@@]34CC[C@@H](c5cc(-c6c(F)cccc6F)nnc53)C4(C)C)n2)n1` [Example 352], the half-inhibitory concentration (IC50) turned out to be 15.2 nM.

As to `C[C@H](O)c1ccn(-c2nccc([C@@]34CC[C@@H](c5cc(-c6c(F)cccc6F)nnc53)C4(C)C)n2)n1` [Example 353], the IC50 was 10.8 nM.
